# Results published in patent EP4506003A1, “HALOGEN DERIVATIVES OF (4´,5´- METHYLENEDIOXYPHENYL)-6,7-DIMETHOXY-1,2,3,4-TETRAHYDROISOQUINOLINE FOR USE IN THE TREATMENT OF LEUKEMIA” (S.Yu Yunusov Institute of Chemistry of Plant Substances of …, priority 2023, dated 2025).
# Marks after values point to notes of the source that are not given here.
# Tests used:
# [1] = tested on: CCRF-CEM (CCL-119) (T-lymphoblastic leukemia); experiment: MTT cytotoxicity on CCRF-CEM cells; type: cell-based; conditions: Homo sapiens, 24 hours
# Experimental: (§1) The cytotoxic properties of the compounds were determined in vitro using the MTT method in 96-well plates (Costar, USA). […] Rat liver hepatocytes were obtained according to the method, human blood mononuclear cells - according to [23]. Fibroblast cells were obtained according to the method of [24] with some modifications. Cell cultures were subcultured into 96-well plates according to the method of [21] by adding 100 μl of nutrient medium. The CCRF-CEM suspension culture was poured into a tube, centrifuged at 800 rpm for 10 minutes, and the supernatant was discarded. […] Data obtained in 3 independent experiments were expressed as the mean value for each concentration ± standard error of the mean, relative to the control values (cells without test compounds). The cytotoxic effect of each of the studied compounds was compared with the effect of the cytostatic Cisplatin-Naprod (India), containing cisplatin as an active component. Table 1: IC50 μM value for test compounds
# fibroblasts = experiment: MTT cytotoxicity on fibroblasts; type: cell-based; conditions: Fibroblast, 24 hours
# Experimental: as §1
# Rat liver hepatocytes = experiment: MTT cytotoxicity on hepatocytes; type: cell-based; conditions: Rattus norvegicus, Hepatocyte, 24 hours
# Experimental: as §1
# [2] = Acute toxicity study (LD50); conditions: mouse, in vivo, ip
# Experimental: (§2) We studied the acute toxicity of compound F1 in vivo. The experiments were carried out on outbred white mice of both sexes weighing 18-20 g (24 pcs.). The animals were divided into groups of 12 mice each. The compound was dissolved in DMSO and then adjusted to the desired concentration with 0.9% NaCl solution and administered intraperitoneally and subcutaneously in a dose range from 5.0 to 200.0 mg/kg. […] The maximum relative error of the applied dose was no more than 5%.
# as §2, with “F2” for “F1”, “brought” for “adjusted”, “subcutaneously to animals” for “subcutaneously”, “administered” for “applied”
# outbred white mice = experiment: Acute toxicity study (LD50)
# Experimental: as §2
# as §2, with “F2” for “F1”, “brought” for “adjusted”, “subcutaneously to animals” for “subcutaneously”, “administered” for “applied”
# [3] = tested on: blood of patients with leukemia (combined group); experiment: Hemogram of blood of patients with leukemia (combined group) after exposure; type: cell-based
# Source text: (§3) The effect of compounds F1 and F2 was studied on biological material (blood) of patients with hematological malignancies (leukemia), as well as for individual nosologies, in particular, patients with leukemia (combined group) (n=224), T-ALL (n=84), B-ALL (n=100), ALL (n=100), AML (n= 98), AML (n=94) and AML (n= 98) were studied. A total of 798 blood samples from patients with leukemia were examined.
# (§4) The drugs Cytosar (Alexan) (Ebewe Pharma, Austria) and doxorubicin (Naprod, Mumbai, India) recommended by WHO for the treatment of the above oncohematological diseases were used as comparison drugs.
# (§5) 5 ml of venous blood from sick and conditionally healthy individuals were collected into Vacutainer tubes with the addition of EDTA (Himedia, India).
# (§6) The resulting blood was divided into aliquots of 1 ml and 10 µl (10 µg/ml) of the studied drugs (cytosar, doxorubicin, F1 and F2) were added to each tube.
# [4] = tested on: blood of patients with T-ALL; experiment: Hemogram of blood of patients with T-ALL after exposure; type: cell-based
# Source text: as §3, §4, §5, §6
# [5] = tested on: blood of patients with B-ALL; experiment: Hemogram of blood of patients with B-ALL after exposure; type: cell-based
# Experimental: A total of 798 blood samples from patients with leukemia were examined.
# as §4, §5, §6
# [6] = tested on: blood of patients with ALL; experiment: Hemogram of blood of patients with ALL after exposure; type: cell-based
# Experimental: as §3, §5, §6
# [7] = tested on: blood of patients with AML; experiment: Hemogram of blood of patients with AML after exposure (Example 12, Table 9); type: cell-based
# Experimental: as §4, §5, §6
# [8] = tested on: blood of patients with AML; experiment: Hemogram of blood of patients with AML after exposure (Example 13, Table 10; also OMML); type: cell-based
# Experimental: as §4, §5, §6
# [9] = tested on: blood of patients with AML; experiment: Hemogram of blood of patients with AML after exposure (Example 14, Table 11); type: cell-based; conditions: AML (Table 11); 10 µg/ml; 3 hours, 37.0°C
# Source text: as §3, §4, §5, §6
# [10] = AML (Table 9), 10 µg/ml, 3 hours, 37.0°C
# [11] = AML (Example 13), compared with doxorubicin
# [12] = AML (Table 10), 10 µg/ml, 3 hours, 37.0°C
smiles,measurement,setting,value
"COc1cc2c(cc1OC)C(c1cc3c(cc1Cl)OCO3)NCC2 (centres unmarked) [Compound F2, 1-(2'-chloro-4',5'-methylenedioxyphenyl)-6,7-dimethoxy-1,2,3,4-tetrahydroisoquinoline]",IC50,[1],21 µM
same,IC50,fibroblasts,> 100 µM
same,IC50,Rat liver hepatocytes,> 100 µM
same,LD50 at 168 h,[2],220 ± 15.6 mg/kg
same,toxicity class,outbred white mice; classified from LD50,toxicity class 3 (moderately toxic)
same,"LD50 value, times higher than cytosar (cytarabine)",outbred white mice; relative to cytosar,52 times
same,"LD50 value, times higher than doxorubicin",outbred white mice; relative to doxorubicin,20 times
same,Band (s/n) neutrophils,"[3]; 10 µg/ml, 3 hours, 37.0°C","1,6±0,2 %"
same,Blasts,"[3]; 10 µg/ml, 3 hours, 37.0°C","65,2±2,8 %"
same,Destroyed cells,"[3]; 10 µg/ml, 3 hours, 37.0°C","12,9±1,8 %"
same,Eosinophils,"[3]; 10 µg/ml, 3 hours, 37.0°C","1,6±0,3 %"
same,Lymphocytes,"[3]; 10 µg/ml, 3 hours, 37.0°C","12,3±1,2%"
same,Monocytes,"[3]; 10 µg/ml, 3 hours, 37.0°C","4,7±0,7 %"
same,Myelocytes,"[3]; 10 µg/ml, 3 hours, 37.0°C","2,5±0,6 %"
same,Promyelocytes,"[3]; 10 µg/ml, 3 hours, 37.0°C","3,8±2,1%"
same,Segmented (s/i) neutrophils,"[3]; 10 µg/ml, 3 hours, 37.0°C","5,5±0,9%"
same,increase in the level of destroyed cells,[3]; compared to the control group,2.3 fold
same,decrease in the content of blasts,[3]; versus Control group,14.6%
same,Band (s/n) neutrophils,"[4]; 10 µg/ml, 3 hours, 37.0°C","0,8±0,2%"
same,Blasts,"[4]; 10 µg/ml, 3 hours, 37.0°C","68,2±2,2 %"
same,Destroyed cells,"[4]; 10 µg/ml, 3 hours, 37.0°C","16,1±1,3 A %"
same,Eosinophils,"[4]; 10 µg/ml, 3 hours, 37.0°C","0,0±0,0%"
same,Lymphocytes,"[4]; 10 µg/ml, 3 hours, 37.0°C","6,7±0,6*^ # %"
same,Monocytes,"[4]; 10 µg/ml, 3 hours, 37.0°C","1,2±0,2*^ %"
same,Myelocytes,"[4]; 10 µg/ml, 3 hours, 37.0°C","0,0±0,0%"
same,Promyelocytes,"[4]; 10 µg/ml, 3 hours, 37.0°C","0,0±0,000%"
same,Segmented (s/i) neutrophils,"[4]; 10 µg/ml, 3 hours, 37.0°C","7,0±1,0*^ %"
same,increase in the percentage of destroyed cells,[4]; comparator not stated,1.8 times
same,decrease in lymphocytes,[4]; compared with doxorubicin,1.7 times
same,decrease in monocytes,[4]; compared with doxorubicin,1.9 times
same,increase in the proportion of mature and differentiated neutrophils,[4]; comparison with the cytosar group,2.3 times
same,decrease in the content of blasts,[5],1.27 times
same,increase in the proportion of destroyed cells,[5],4.9 times
same,Band (s/n) neutrophils,"[5]; 10 µg/ml, 3 hours, 37.0°C","1,7±0,4%"
same,Blasts,"[5]; 10 µg/ml, 3 hours, 37.0°C","53,9±2,6 %"
same,Destroyed cells,"[5]; 10 µg/ml, 3 hours, 37.0°C","15,2±1,8*^ %"
same,Eosinophils,"[5]; 10 µg/ml, 3 hours, 37.0°C","0,0±0,0%"
same,Lymphocytes,"[5]; 10 µg/ml, 3 hours, 37.0°C","14,6±2,0%"
same,Monocytes,"[5]; 10 µg/ml, 3 hours, 37.0°C","2,8±0,9%"
same,Myelocytes,"[5]; 10 µg/ml, 3 hours, 37.0°C","0,8±0,2%"
same,Promyelocytes,"[5]; 10 µg/ml, 3 hours, 37.0°C","0,0±0,0%"
same,Segmented (s/i) neutrophils,"[5]; 10 µg/ml, 3 hours, 37.0°C","11,1±2,0 %"
same,Band (s/n) neutrophils,"[6]; 10 µg/ml, 3 hours, 37.0°C","0,7±0,2%"
same,Blasts,"[6]; 10 µg/ml, 3 hours, 37.0°C","67,9±1,6*^ %"
same,Destroyed cells,"[6]; 10 µg/ml, 3 hours, 37.0°C","13,2±1,4*^ # %"
same,Eosinophils,"[6]; 10 µg/ml, 3 hours, 37.0°C","0,2±0,1%"
same,Lymphocytes,"[6]; 10 µg/ml, 3 hours, 37.0°C","13,4±1,3%"
same,Monocytes,"[6]; 10 µg/ml, 3 hours, 37.0°C","1,1±0,3%"
same,Myelocytes,"[6]; 10 µg/ml, 3 hours, 37.0°C","0,0±0,0%"
same,Promyelocytes,"[6]; 10 µg/ml, 3 hours, 37.0°C","0,0±0,0%"
same,Segmented (s/i) neutrophils,"[6]; 10 µg/ml, 3 hours, 37.0°C","3,7±0,7 %"
same,percentage of destroyed cells higher,[6]; compared to cytosar,2.8 times
same,difference in the level of blast cells,[6]; compared with cytosar,1.16 times
same,increase in the proportion of destroyed cells,[6]; in comparison with doxorubicin,2.75 times
same,decrease in the percentage of blasts,[7]; AML (Example 12),1.2 times
same,increase in the level of destroyed cells,[7]; AML (Example 12),4.0 times
same,increase in the proportion of mature differentiated neutrophils,[7]; AML (Example 12),2.0 times
same,Band (s/n) neutrophils,[7]; [10],"0,9±0,4%"
same,Blasts,[7]; [10],"65,6±2,4 %"
same,Destroyed cells,[7]; [10],"8,2±1,1%"
same,Eosinophils,[7]; [10],"0,8±0,5%"
same,Lymphocytes,[7]; [10],"11,5±1,8%"
same,Monocytes,[7]; [10],"4,4±0,9%"
same,Myelocytes,[7]; [10],"1,3±0,7%"
same,Promyelocytes,[7]; [10],"0,4±0,2%"
same,Segmented (s/i) neutrophils,[7]; [10],"7,0±1,1 %"
same,decrease in the percentage of myelocytes,[8]; AML (Example 13),2.1 times
same,decrease in the proportion of blasts,[8]; AML (Example 13),11.7%
same,increase in the proportion of destroyed cells,[8]; AML (Example 13),2.6 times
same,increase in the proportion of neutrophils,[8]; AML (Example 13),2.3 times
same,proportion of destroyed cells higher,"[8]; AML (Example 13), compared with Cytosar",2.1 times
same,percentage of lymphocytes lower,[8]; [11],1.9 times
same,percentage of neutrophils lower,[8]; [11],1.7 times
same,percentage of myelocytes lower,"[8]; AML (Example 13), relative to cytosar",5.0 times
same,Band (s/n) neutrophils,[8]; [12],"2,9±0,4%"
same,Blasts,[8]; [12],"51,9±2,2%"
same,Destroyed cells,[8]; [12],"16,6±1,6*^ %"
same,Eosinophils,[8]; [12],"0,5±0,2%"
same,Lymphocytes,[8]; [12],"3,2±0,8 %"
same,Monocytes,[8]; [12],"3,2±0,4 %"
same,Myelocytes,[8]; [12],"3,2±0,5 %"
same,Promyelocytes,[8]; [12],"0,0±0,0%"
same,Segmented (s/i) neutrophils,[8]; [12],"18,6±1,7 %"
same,Band (s/n) neutrophils,[9],"1,2±0,3%"
same,Blasts,[9],"59,1±3,3 %"
same,Destroyed cells,[9],"19,3±1,7 %"
same,Eosinophils,[9],"0,5±0,2%"
same,Lymphocytes,[9],"8,2±1,1%"
same,Monocytes,[9],"1,8±0,3%"
same,Myelocytes,[9],"0,4±0,1%"
same,Promyelocytes,[9],"0,0±0,0%"
same,Segmented (s/i) neutrophils,[9],"9,6±2,5%"
